In ChEMBL document CHEMBL1201862, “PubChem BioAssay data set” (2004):
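Briefly, cells in 96-well plates were exposed to five compound concentrations for 48 h, and endpoints were estimated by linear interpolation. Abbreviation: GI50, concentration required for 50% inhibition of growth.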 Activity calls are given as the source filed them. No stated cut-off is given here; in the data, active = GI50 up to about 1.1 µM and inactive = higher.

Tests used:
Experiment in all cases: inhibition of tumour cell growth, NCI panel, 48 h
NCI-H23 = test system: NCI-H23
M14 = test system: M14
OVCAR-4 = test system: OVCAR-4
M19-MEL = test system: M19-MEL
SNB-19 = test system: SNB-19
EKVX = test system: EKVX
HOP-18 = test system: HOP-18
SK-MEL-5 = test system: SK-MEL-5
ACHN = test system: ACHN
UACC-62 = test system: UACC-62
RPMI-8226 = test system: RPMI-8226
SW-620 = test system: SW-620
UO-31 = test system: UO-31
HL-60 = test system: HL-60
786-0 = test system: 786-0
COLO 205 = test system: COLO 205
OVCAR-5 = test system: OVCAR-5
HOP-62 = test system: HOP-62
KM12 = test system: KM12
HT-29 = test system: HT-29
DMS-273 = test system: DMS-273
A498 = test system: A498
HCT-15 = test system: HCT-15
SF-295 = test system: SF-295
CCRF-CEM = test system: CCRF-CEM
Malme-3M = test system: Malme-3M
IGROV-1 = test system: IGROV-1
SN12C = test system: SN12C
DLD-1 = test system: DLD-1
SNB-78 = test system: SNB-78
HCT-116 = test system: HCT-116
SNB-75 = test system: SNB-75
K562 = test system: K562
SF-539 = test system: SF-539
UACC-257 = test system: UACC-257
RXF 631 = test system: RXF 631
SF-268 = test system: SF-268
U-251 = test system: U-251
A549 = test system: A549
LXFL 529 = test system: LXFL 529
OVCAR-8 = test system: OVCAR-8
HOP-92 = test system: HOP-92
KM-20L2 = test system: KM-20L2
TK-10 = test system: TK-10
MOLT-4 = test system: MOLT-4
CAKI-1 = test system: CAKI-1
NCI-H522 = test system: NCI-H522
NCI-H226 = test system: NCI-H226
NCI-H460 = test system: NCI-H460
DMS-114 = test system: DMS-114
HCC 2998 = test system: HCC 2998
OVCAR-3 = test system: OVCAR-3
SK-OV-3 = test system: SK-OV-3

**Q.** Which results are given for `O=C(/C=C/c1ccccc1)c1ccc(Cl)cc1Cl`?
**A.** GI50 (NCI-H23): 27.5 µM (inactive); GI50 (M14): 23.2 µM (inactive); GI50 (OVCAR-4): 20.7 µM (inactive); GI50 (M19-MEL): 23.4 µM (inactive); GI50 (SNB-19): 27.5 µM (inactive); GI50 (EKVX): 28.4 µM (inactive); GI50 (HOP-18): 22 µM (inactive); GI50 (SK-MEL-5): 14.1 µM (inactive); GI50 (ACHN): 18.2 µM (inactive); GI50 (UACC-62): 15.9 µM (inactive); GI50 (RPMI-8226): 3.76 µM (inactive); GI50 (SW-620): 4.8 µM (inactive); GI50 (UO-31): > 100 µM (inactive); GI50 (HL-60): 14.8 µM (inactive); GI50 (786-0): 17.9 µM (inactive); GI50 (COLO 205): 20.5 µM (inactive); GI50 (OVCAR-5): 20.6 µM (inactive); GI50 (HOP-62): 94.4 µM (inactive); GI50 (KM12): 15.9 µM (inactive); GI50 (HT-29): 16.8 µM (inactive); GI50 (DMS-273): 15.5 µM (inactive); GI50 (A498): 18.3 µM (inactive); GI50 (HCT-15): 13.1 µM; GI50 (SF-295): 19.9 µM (inactive); GI50 (CCRF-CEM): 7.24 µM (inactive); GI50 (Malme-3M): 25.1 µM (inactive); GI50 (IGROV-1): 18.5 µM (inactive); GI50 (SN12C): 23.1 µM (inactive); GI50 (DLD-1): 17.1 µM (inactive); GI50 (SNB-78): 22.6 µM (inactive); GI50 (HCT-116): 11.2 µM (inactive); GI50 (SNB-75): 30.8 µM (inactive); GI50 (K562): 10 µM (inactive); GI50 (SF-539): 20.8 µM (inactive); GI50 (UACC-257): 23.8 µM (inactive); GI50 (RXF 631): 38 µM (inactive); GI50 (SF-268): 28.4 µM (inactive); GI50 (U-251): 19.6 µM (inactive); GI50 (A549): 25.8 µM (inactive); GI50 (LXFL 529): 15.1 µM (inactive); GI50 (OVCAR-8): 15.1 µM (inactive); GI50 (HOP-92): 35.9 µM (inactive); GI50 (KM-20L2): 19.5 µM (inactive); GI50 (TK-10): 31.8 µM (inactive); GI50 (MOLT-4): 18.1 µM (inactive); GI50 (CAKI-1): 25.9 µM (inactive); GI50 (NCI-H522): 13.4 µM (inactive); GI50 (NCI-H226): 29.9 µM (inactive); GI50 (NCI-H460): 17.6 µM (inactive); GI50 (DMS-114): 17.3 µM (inactive); GI50 (HCC 2998): 23.3 µM (inactive); GI50 (OVCAR-3): 20 µM (inactive); GI50 (SK-OV-3): 46.9 µM (inactive)
